77 sequences from the supplement of paper PMC11208160 can be followed below.

This data set in a line: recombinant barcode read abundance after kanamycin selection (control-corrected) (log10(CPM+1)); higher = more efficient recombination; sequences stand for … in AGTGCAGAGAAAATCGGCCAGTTTTCTCTGCCTGCAGTCCGCATGCCGT…AGATTTATGCAGCGGACTGCCTTTCTCCCAAAGTGATAAACCGGACAGTATCATGGACCGGTTTTCCCGGTAATCCGTATTTGCAAGGTTGGTTTCACT; site = the 11-nt target. Summed up:
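Targets were screened in pooled form in E. coli against IS621 bridge RNA target-binding loops. Recombination efficiency is based on barcode counts at recombinant junctions in counts per million, averaged and corrected for the control. Numbers are shown as log10(CPM+1), with duplicate plates on chloramphenicol/ampicillin LB agar (control) or chloramphenicol/ampicillin/kanamycin with 0.1 mM IPTG.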
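Note: IS621 recombinase and bridge RNA in Escherichia coli cells.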

For “TACCAGACTTGGGTTCTAACCTGTTGCCT (site TACCGGACTAG)”, the “recombinant barcode read abundance (log10)” value stood at 0.191.
For “TACCAGACTTGGGTTCTAACCTGTTGCCT (site TACCTGACTAG)”, the “recombinant barcode read abundance (log10)” value was 0.0512.
On to “TACCCTTCTTGGGTTCTAACCTGTTGCGT (site CCTAAGCCTCA)”, for which the “recombinant barcode read abundance (log10)” value was found to be 0.0691.
The result for “TACCCTTCTTGGGTTCTAACCTGTTGCGT (site TACCCTTCTAC)” reads 1.84; that for “TACCGGACTTGGGTTCTAACCTGTTGCCT (site TACCAGACTAG)”, 0.252.
Consider “TACCGGACTTGGGTTCTAACCTGTTGCCT (site TACCCGACTAG)”, for which the “recombinant barcode read abundance (log10)” value is 0.139.
In the case of “TACCGGACTTGGGTTCTAACCTGTTGCCT (site TACCGGACTAG)”, the “recombinant barcode read abundance (log10)” value came out at 1.56.
As to “TACCGGACTTGGGTTCTAACCTGTTGCCT (site TACCTGACTAG)”, the “recombinant barcode read abundance (log10)” value came out at 0.0144.
With “TACCGGTCTTGGGTTCTAACCTGTTGCTT (site TACCAGTCTAA)”, the “recombinant barcode read abundance (log10)” value turned out to be 0.18.
The result for “TACCGGTCTTGGGTTCTAACCTGTTGCTT (site TACCCGTCTAA)” reads 0.13; that for “TACCGGTCTTGGGTTCTAACCTGTTGCTT (site TACCGGTCTAA)”, 1.46; that for “TACCGGTCTTGGGTTCTAACCTGTTGCTT (site TACCTGTCTAA)”, 0.00501.
In the case of “TACCTAACTTGGGTTCTAACCTGTTGCTT (site GGTTCCTCTCC)”, the “recombinant barcode read abundance (log10)” value is 0.206.
The value for “TACCTAACTTGGGTTCTAACCTGTTGCTT (site TACCTAACTAA)” was 0.0655.
The value for “TACCTGCCTTGGGTTCTAACCTGTTGCGT (site GCCCTGCCTAC)” was 0.0159; that for “TACCTGCCTTGGGTTCTAACCTGTTGCGT (site TACCTGCCTAC)” was 1.27; that for “TACCTGTCTTGGGTTCTAACCTGTTGCTT (site TACCAGTCTAA)” was 0.139.
As for “TACCTGTCTTGGGTTCTAACCTGTTGCTT (site TACCCGTCTAA)”, the “recombinant barcode read abundance (log10)” value amounted to 0.251.
Turning to “TACCTGTCTTGGGTTCTAACCTGTTGCTT (site TACCGGTCTAA)”, the “recombinant barcode read abundance (log10)” value is 0.543.
As for “TACCTGTCTTGGGTTCTAACCTGTTGCTT (site TACCTGTCTAA)”, the “recombinant barcode read abundance (log10)” value was found to be 1.77.
Take “TACGACGCTTGGGTTCTAACCTGTTGCCT (site TAAGACGCTAG)”: the “recombinant barcode read abundance (log10)” value is 0.0663.
On to “TACGACGCTTGGGTTCTAACCTGTTGCCT (site TACGACGCTAG)”, for which the “recombinant barcode read abundance (log10)” value was 0.756.
With “TACGACGCTTGGGTTCTAACCTGTTGCCT (site TAGGACGCTAG)”, the “recombinant barcode read abundance (log10)” value is 0.0186.
With “TACGACGCTTGGGTTCTAACCTGTTGCCT (site TATGACGCTAG)”, the “recombinant barcode read abundance (log10)” value came to 0.128.
With “TACGATACTTGGGTTCTAACCTGTTGCGT (site CTACGACCTCT)”, the “recombinant barcode read abundance (log10)” value was determined as 0.0489.
The value for “TACGATACTTGGGTTCTAACCTGTTGCGT (site TACGATACTAC)” was 1.19; that for “TACGCTCCTTGGGTTCTAACCTGTTGCGT (site TACGCTCCTAA)” was 0.0715.
As to “TACGCTCCTTGGGTTCTAACCTGTTGCGT (site TACGCTCCTAC)”, the “recombinant barcode read abundance (log10)” value was 0.108.
For “TACGCTCCTTGGGTTCTAACCTGTTGCGT (site TACGCTCCTAG)”, the “recombinant barcode read abundance (log10)” value was determined as 0.0936.
On to “TACGCTCCTTGGGTTCTAACCTGTTGCGT (site TACGCTCCTAT)”, for which the “recombinant barcode read abundance (log10)” value is 0.501.
The value for “TACGGTCCTTGGGTTCTAACCTGTTGCTT (site TACGGTCCTAA)” was 1.08; that for “TACGGTCCTTGGGTTCTAACCTGTTGCTT (site TAGGCTCCTAA)” was 0.261; that for “TACGTGGCTTGGGTTCTAACCTGTTGCCT (site TACGAGGCTAG)” was 0.182.
Turning to “TACGTGGCTTGGGTTCTAACCTGTTGCCT (site TACGCGGCTAG)”, the “recombinant barcode read abundance (log10)” value was found to be 0.0139.
The value for “TACGTGGCTTGGGTTCTAACCTGTTGCCT (site TACGGGGCTAG)” was 0.502; that for “TACGTGGCTTGGGTTCTAACCTGTTGCCT (site TACGTGGCTAG)” was 0.825; that for “TACGTGTCTTGGGTTCTAACCTGTTGCTA (site TACGTGTCTTA)” was 2.19.
For the sequence “TACGTGTCTTGGGTTCTAACCTGTTGCTA (site TGCGTGTCTCA)”, the “recombinant barcode read abundance (log10)” value stood at 0.051.
Regarding “TACTAACCTTGGGTTCTAACCTGTTGCCT (site CATTAACCTAG)”, the “recombinant barcode read abundance (log10)” value turned out to be 0.0235.
As to “TACTAACCTTGGGTTCTAACCTGTTGCCT (site TACTAACCTAG)”, the “recombinant barcode read abundance (log10)” value was determined as 0.752.
On to “TACTACCCTTGGGTTCTAACCTGTTGCCA (site TACTACCCTTG)”, for which the “recombinant barcode read abundance (log10)” value stood at 0.606.
Regarding “TACTACCCTTGGGTTCTAACCTGTTGCCA (site TAGTATCCTTG)”, the “recombinant barcode read abundance (log10)” value stood at 0.0944.
The result for “TACTACCCTTGGGTTCTAACCTGTTGCCT (site TACTACCCTAG)” reads 1.46; that for “TACTACCCTTGGGTTCTAACCTGTTGCCT (site TCCTACCCTAG)”, 0.126; that for “TACTACCCTTGGGTTCTAACCTGTTGCCT (site TGCTACCCTAG)”, 0.0397.
The result for “TACTACCCTTGGGTTCTAACCTGTTGCCT (site TTCTACCCTAG)” reads 0.0291.
The value for “TACTGGGCTTGGGTTCTAACCTGTTGCGG (site TACTGGGCTCA)” was 0.316.
Consider “TACTGGGCTTGGGTTCTAACCTGTTGCGG (site TACTGGGCTCC)”, for which the “recombinant barcode read abundance (log10)” value stood at 2.2.
On to “TACTTACCTTGGGTTCTAACCTGTTGCCT (site TACTTACCTAG)”, for which the “recombinant barcode read abundance (log10)” value amounted to 0.362.
In the case of “TACTTACCTTGGGTTCTAACCTGTTGCCT (site TTCTTACCTAG)”, the “recombinant barcode read abundance (log10)” value was determined as 0.0922.
As to “TACTTAGCTTGGGTTCTAACCTGTTGCCG (site TACTTAGCTCG)”, the “recombinant barcode read abundance (log10)” value was 0.075.
For “TACTTAGCTTGGGTTCTAACCTGTTGCCG (site TAGTTACCTCG)”, the “recombinant barcode read abundance (log10)” value was determined as 0.0382.
For “TAGAACCCTTGGGTTCTAACCTGTTGCTT (site TAGAACCCTAA)”, the “recombinant barcode read abundance (log10)” value amounted to 0.367.
Regarding “TAGAACCCTTGGGTTCTAACCTGTTGCTT (site TAGATCCCTAA)”, the “recombinant barcode read abundance (log10)” value turned out to be 0.0967.
The result for “TAGAACTCTTGGGTTCTAACCTGTTGCCC (site TAGAACTCTAG)” reads 0.296; that for “TAGAACTCTTGGGTTCTAACCTGTTGCCC (site TAGAACTCTCG)”, 0.0614.
The value for “TAGAACTCTTGGGTTCTAACCTGTTGCCC (site TAGAACTCTGG)” was 0.427.
With “TAGAACTCTTGGGTTCTAACCTGTTGCCC (site TAGAACTCTTG)”, the “recombinant barcode read abundance (log10)” value was 0.0327.
The result for “TAGAACTCTTGGGTTCTAACCTGTTGCGC (site ACATTTCCTAT)” reads 0.0572.
In the case of “TAGAACTCTTGGGTTCTAACCTGTTGCGC (site TAGAACTCTGC)”, the “recombinant barcode read abundance (log10)” value turned out to be 1.
The value for “TAGAAGCCTTGGGTTCTAACCTGTTGCCG (site TACAAGCCTAG)” was 0.0659; that for “TAGAAGCCTTGGGTTCTAACCTGTTGCCG (site TAGAAGCCTCG)” was 1.62.
Turning to “TAGAAGGCTTGGGTTCTAACCTGTTGCGT (site TAGAAGGCTAA)”, the “recombinant barcode read abundance (log10)” value came to 0.445.
Consider “TAGAAGGCTTGGGTTCTAACCTGTTGCGT (site TAGAAGGCTAC)”, for which the “recombinant barcode read abundance (log10)” value is 2.75.
Regarding “TAGAAGGCTTGGGTTCTAACCTGTTGCGT (site TAGAAGGCTAG)”, the “recombinant barcode read abundance (log10)” value was found to be 0.273.
Turning to “TAGAAGGCTTGGGTTCTAACCTGTTGCGT (site TAGAAGGCTAT)”, the “recombinant barcode read abundance (log10)” value is 1.96.
“TAGAATGCTTGGGTTCTAACCTGTTGCTT (site TAGAATGCTAA)”: the “recombinant barcode read abundance (log10)” value stood at 0.285.
Consider “TAGAATGCTTGGGTTCTAACCTGTTGCTT (site TAGAATGCTAG)”, for which the “recombinant barcode read abundance (log10)” value stood at 0.148.
On to “TAGACATCTTGGGTTCTAACCTGTTGCAT (site AAGACATCTAA)”, for which the “recombinant barcode read abundance (log10)” value worked out at 0.133.
As for “TAGACATCTTGGGTTCTAACCTGTTGCAT (site TAGACATCTAT)”, the “recombinant barcode read abundance (log10)” value amounted to 0.353.
The result for “TAGACCACTTGGGTTCTAACCTGTTGCAC (site CTATATGCTAA)” reads 0.0777.
For the sequence “TAGACCACTTGGGTTCTAACCTGTTGCAC (site TAGACCACTGT)”, the “recombinant barcode read abundance (log10)” value came out at 0.954.
With “TAGAGAGCTTGGGTTCTAACCTGTTGCGG (site TAAAGAGCTCC)”, the “recombinant barcode read abundance (log10)” value is 1.57.
On to “TAGAGAGCTTGGGTTCTAACCTGTTGCGG (site TACAGAGCTCC)”, for which the “recombinant barcode read abundance (log10)” value amounted to 0.202.
With “TAGAGAGCTTGGGTTCTAACCTGTTGCGG (site TAGAGAGCTCC)”, the “recombinant barcode read abundance (log10)” value turned out to be 2.09.
For “TAGAGAGCTTGGGTTCTAACCTGTTGCGG (site TATAGAGCTCC)”, the “recombinant barcode read abundance (log10)” value was found to be 0.356.
With “TAGAGCTCTTGGGTTCTAACCTGTTGCTG (site TAGAGCTCTCA)”, the “recombinant barcode read abundance (log10)” value was determined as 0.75.
